System: VEGF induced increases in intracellular calcium levels in HUVEC (human umbilical vein endothelial cells)
Test: VEGF Stimulated Ca++ Signal in vitro (FLIPR)
Assay type: cell-based
Settings: VEGF 5 ng/mL; for inhibition at 10 µM / IC50: Homo sapiens; for IC50: 0.01 to 10.0 μM
Protocol: VEGF Stimulated Ca^++ Signal in vitro
Automated FLIPR (Fluorometric Imaging Plate Reader) technology was used to screen for inhibitors of VEGF induced increases in intracellular calcium levels in fluorescent dye loaded endothelial cells. HUVEC (human umbilical vein endothelial cells) (Clonetics) were seeded in 96-well fibronectin coated black-walled plates overnight at 37° C./5%CO2. Cells were loaded with calcium indicator Fluo-4 for 45 minutes at 37° C. Cells were washed 4 times (Original Cell Wash, Labsystems) to remove extracellular dye. Test compounds were reconstituted in 100% DMSO and added to the cells to give a final DMSO concentration of 0.1%. For screening, cells were pre-incubated with test agents for 30 minutes, at a single concentration (10 μM) or at concentrations ranging from 0.01 to 10.0 μM followed by VEGF stimulation (5 ng/mL). Changes in fluorescence at 516 nm were measured simultaneously in all 96 wells using a cooled CCD camera. Data were generated by determining max-min fluorescence levels for unstimulated, stimulated, and drug treated samples. IC50 values for test compounds were calculated from % inhibition of VEGF stimulated responses in the absence of inhibitor.

Compound	VEGF Stimulated Ca^++ signal assay % inhibition @ 10 μM [%]	inhibition at 10 µM [%]	IC50 [µM]
3-[(Bis-trifluoromethyl-phenylamino)-methylene]-1,3-dihydro-indol-2-one [Example 46]	−4.00		
3-[(Chloro-trifluoromethyl-phenylamino)-methylene]-1,3-dihydro-indol-2-one [Example 45]	50.00		
3-[(Fluoro-trifluoromethyl-phenylamino)-methylene]-1,3-dihydro-indol-2-one [Example 47]	−2.50		
3-[(Methyl-trifluoromethyl-phenylamino)-methylene]-1,3-dihydro-indol-2-one [Example 56]	21.00		
4-[(2-Oxo-1,2-dihydro-indol-3-ylidenemethyl)-amino]-phospate [Example 84]	11.50		
5-Chloro-3-[(phenylamino)-methylene]-1,3-dihydro-indol-2-one benzothiazol-6-yl-amine [Example 101]	22.00		
O=C1Nc2ccccc2C1=CNc1ccccc1 [Example 1, 3-Phenylaminomethylene-1,3-dihydro-indol-2-one]		92	4.05
O=C1Nc2ccccc2C1=CNc1cccc(Br)c1 [Example 2, 3-[(3-Bromo-phenylamino)-methylene]-1,3-dihydro-indol-2-one]		-0.5	
O=C1Nc2ccccc2C1CNc1ccc(Br)cc1 (stereo not drawn) [Example 3, 3-[(4-Bromo-phenylamino)-methyl]-1,3-dihydro-indol-2-one]		3.5	
O=C1Nc2ccccc2C1CNc1cccc(Br)c1 (stereo not drawn) [Example 4, 3-[(3-Bromo-phenylamino)-methyl]-1,3-dihydro-indol-2-one]		16.5	
CCOC(=O)c1ccc(NC=C2C(=O)Nc3ccccc32)cc1 [Example 8, 4-[(2-Oxo-1,3-dihydro-indol-3-ylididenemethyl)-amino]-benzoic acid ethyl ester]	9		
CCc1ccccc1NC=C1C(=O)Nc2ccccc21 [Example 9, 3-[(2-Ethyl-phenylamino)-methylene}-1,3-dihydro-indol-2-one]		13.5	
Cc1ccc(NC=C2C(=O)Nc3ccccc32)cc1F [Example 10, 3-[(3-Fluoro-4-methyl-phenylamino)-methylene]-1,3-dihydro-indol-2-one]		46	≥ 10
Cc1c(F)cccc1NC=C1C(=O)Nc2ccccc21 [Example 11, 3-[(3-Fluoro-2-methyl-phenylamino)-methylene]-1,3-dihydro-indol-2-one]		-14	
O=C1Nc2ccccc2C1=CNc1ccc(O)cc1 [Example 12, 3-[(4-Hydroxy-phenylamino)-methylene]-1,3-dihydro-indol-2-one]		94.2	1.07
O=C1Nc2ccccc2C1=CNc1ccc(O)c(Cl)c1 [Example 13, 3-[(3-Chloro-4-hydroxy-phenylamino)-methylene]-1,3-dihydro-indol-2-one]		-12.5	
Cc1cc(F)ccc1NC=C1C(=O)Nc2ccccc21 [Example 14, 3-[(4-Fluoro-2-methyl-phenylamino)-methylene]-1,3-dihydro-indol-2-one]		-14	
Cc1ccc(NC=C2C(=O)Nc3ccccc32)cc1 [Example 18, 3-(p-Tolylamino-methylene)-1,3-dihydro-indol-2-one]		35.5	
Cc1cc(C)cc(NC=C2C(=O)Nc3ccccc32)c1 [Example 19, 3-[(3,5-Dimethyl-phenylamino)-methylene]-1,3-dihydro-indol-2-one]		14	
O=C1Nc2ccccc2C1=CNc1cccc(C(F)(F)F)c1 [Example 22, 3-[(3-Trifluoromethyl-phenylamino)-methylene]-1,3-dihydro-indol-2-one]		22.5	
O=C1Nc2ccccc2C1=CNc1ccc2c(c1)CCC2 [Example 23, 3-(Indan-5-ylaminomethylene)-1,3-dihydro-indol-2-one]		42	
O=C1Nc2ccccc2C1=CNc1ccc(Cl)cc1F [Example 24, 3-[(4-Chloro-2-fluoro-phenylamino)-methylene]-1,3-dihydro-indol-2-one]		-13.5	
O=C1Nc2ccccc2C1=CNc1ccc(C(F)(F)F)cc1 [Example 25, 3-[(4-Trifluoromethyl-phenylamino)-methylene]-1,3-dihydro-indol-2-one]		-1.5	

Compound	VEGF Stimulated Ca^++ signal assay % inhibition @ 10 μM [%]	inhibition at 10 µM [%]	IC50 [µM]
CCOC(=O)Oc1cc(NC=C2C(=O)Nc3ccccc32)c(F)cc1C [Example 26, Carbonic acid ethyl ester 4-fluoro-2-methyl-5-[(2-oxo-1,2-dihydro-indol-3-ylidenemethyl)-amino]-phenyl ester]		37.5	
Cc1cc(F)c(NC=C2C(=O)Nc3ccccc32)cc1OC(=O)OCC(C)(C)C [Example 27, Carbonic acid 2,2-dimethyl-propyl ester 4-fluoro-2-methyl-5-[(2-oxo-1,2-dihydro-indol-3-ylidenemethyl)-amino]-phenyl ester]		-9	
O=C1Nc2ccccc2C1=CNc1cc(O)c(Cl)cc1F [Example 28, 3-[(4-Chloro-2-fluoro-5-hydroxy-phenylamino)-methylene]-1,3-dihydro-indol-2-one]		32.5	
N#CCc1ccc(NC=C2C(=O)Nc3ccccc32)cc1 [Example 30, 3-[(4-Cyanomethylphenylamino)-methylene]-1,3-dihydro-indol-2-one]		39.5	
O=C1Nc2ccccc2C1=CNc1ccc(Cl)cc1 [Example 36, 3-[(4-Chlorophenylamino)-methylene]-1,3-dihydro-indol-2-one]		30	
O=C1Nc2ccccc2C1=CNc1ccc(Cl)c(C(=O)O)c1 [Example 37, 2-Chloro-5-[(2-oxo-1,2-dihydro-indol-3-ylidenemethyl)-amino]-benzoic acid]		-4	
CC(=O)NS(=O)(=O)c1ccc(NC=C2C(=O)Nc3ccccc32)cc1 [Example 39, 2-Oxo-1,2-dihydro-indol-3-ylidenemethyl-sulfaacetamide]	−14.50		
O=C1Nc2ccccc2C1=CNc1ccc(Oc2ccccc2)cc1 [Example 41, 3-[(4-Phenoxyamino)-methylene]-1,3-dihydro-indol-2-one]	16.00		
COc1ccc(NC=C2C(=O)Nc3ccccc32)cc1OC [Example 42, 3-[(3,4-Dimethoxyamino)-methylene]-1,3-dihydro-indol-2-one]	59.50		
O=C1Nc2ccccc2C1=CNc1ccc(OC(F)(F)F)cc1 [Example 51, 3-[(4-Trifluoromethoxy-phenylamino)-methylene]-1,3-dihydro-indol-2-one]		45.5	
Cc1ccc(NC=C2C(=O)Nc3ccccc32)c(F)c1 [Example 53, 3-[(2-Fluoro-4-methyl-phenylamino)-methylene]-1,3-dihydro-indol-2-one]		2.5	
Cc1cc(NC=C2C(=O)Nc3ccccc32)ccc1Cl [Example 54, 3-[(4-Chloro-3-methyl-phenylamino)-methylene]-1,3-dihydro-indol-2-one]		40.5	
COc1ccc(NC=C2C(=O)Nc3ccccc32)cc1C(F)(F)F [Example 55, 3-[(4-Methoxy-3-trifluoromethyl-phenylamino)-methylene]-1,3-dihydro-indol-2-one]		14.5	
COc1cc(NC=C2C(=O)Nc3cccc(C)c32)cc(OC)c1 [Example 61, 3-[(3,5-Dimethoxy-phenylamino)-methylene]-4-methyl-1,3-dihydro-indol-2-one]		-4.5	
Cc1ccc(NC=C2C(=O)Nc3cccc(C)c32)cc1 [Example 62, 4-Methyl-3-(p-tolylamino-methylene)-1,3-dihydro-indol-2-one]		33	
Cc1cc(C)cc(NC=C2C(=O)Nc3cccc(C)c32)c1 [Example 63, 3-[(3,5-Dimethyl-phenylamino)-methylene]-4-methyl-1,3-dihydro-indol-2-one]		-14.5	
O=C1Nc2ccc(Cl)cc2C1=CNc1ccc(OC(F)F)cc1 [Example 64, 3-[(4-Difluoromethoxyphenylamino)-methylene]-5-chloro-1,3-dihydro-indol-2-one]		37	
O=C1Nc2ccc(Cl)cc2C1=CNc1ccc(OC(F)(F)F)cc1 [Example 66, 3-[(4-Trifluoromethoxyphenylamino)-methylene]-5-chloro-1,3-dihydro-indol-2-one]		18.5	
Cc1cc(NC=C2C(=O)Nc3ccc(Cl)cc32)ccc1O [Example 67, 3-[(3-Methyl-4-hydroxyphenylamino)-methylene]-5-chloro-1,3-dihydro-indol-2-one]		19	
O=C1Nc2ccc(Cl)cc2C1=CNc1ccc2c(c1)OCO2 [Example 68, 3-[(3,4-Metylenedioxyphenylamino)-methylene]-5-chloro-1,3-dihydro-indol-2-one]	−2.50		
Cc1ccc(NC=C2C(=O)Nc3ccc(Cl)cc32)cc1C [Example 69, 3-[(3,4-Dimethylphenylamino)-methylene]-5-chloro-1,3-dihydro-indol-2-one]		-10.7	
CC(C)c1ccc(NC=C2C(=O)Nc3ccc(Cl)cc32)cc1 [Example 70, 3-[(4-i-Propylphenylamino)-methylene]-5-chloro-1,3-dihydro-indol-2-one]		25	
